# Reference: paper PMC8474119, “Discovery and SAR Evolution of Pyrazole Azabicyclo[3.2.1]octane Sulfonamides as a Novel Class of Non-Covalent N-Acylethanolamine-Hydrolyzing Acid Amidase (NAAA) Inhibitors for Oral Administration” (Journal of Medicinal Chemistry, 2021)
# How the values were obtained:
# h-NAAA = molecular target: T1, h-NAAA (Homo sapiens, UniProt Q02083); assay: Fluorogenic human-NAAA assay (h-NAAA, fluo.); format: biochemical; settings: for LipE: LipE = pIC50 – c Log P (h-NAAA); for pIC50: Table S1; for pIC50 / IC50: h-NAAA (fluo.); for IC50: mean ± SD (n ≥ 3), n.a.: not active @50 μM (<10% inhibition)
# T1 construct: made in house; host or cells: HEK-293 cells stably overexpressing human NAAA; enzyme-enriched (lysosomal) lysate
# T1 sequence (Q02083 29-125 limits assumed): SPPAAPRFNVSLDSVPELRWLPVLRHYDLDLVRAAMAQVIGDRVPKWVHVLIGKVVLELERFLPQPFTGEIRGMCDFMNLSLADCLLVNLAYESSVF
# T1 sequence (Q02083 126-359 limits assumed): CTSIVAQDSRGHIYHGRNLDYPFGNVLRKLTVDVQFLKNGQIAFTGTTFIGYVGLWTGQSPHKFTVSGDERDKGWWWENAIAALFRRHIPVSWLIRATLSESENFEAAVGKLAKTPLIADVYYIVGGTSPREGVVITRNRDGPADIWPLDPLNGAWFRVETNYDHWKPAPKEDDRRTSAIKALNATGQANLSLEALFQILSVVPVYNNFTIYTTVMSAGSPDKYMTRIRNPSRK
# Description: (§1) Human recombinant proteins were obtained from HEK-293 stable overexpressing human NAAA, AC, and FAAH-1 cell lines, respectively. Cells were grown in Dulbecco’s modified Eagle medium (DMEM) containing 10% FBS, 1% glutamine, 1 mM sodium pyruvate, and 500 μg/mL geneticin (G418). To obtain a high-density cell proliferation, h-NAAA-HEK-293 cells were grown in BelloCell-500 bottle, a compact bioreactor. On the contrary, h-AC and h-FAAH-1-HEK-293 cells were grown in 150 mm dishes and scraped off with cold PBS 1× pH 7.4 at 80% confluence. Cell pellets were collected and stored at −80 °C until protein preparation.
# HEK-293 cells stably transfected with the human NAAA or human AC coding sequences were used as the enzyme source. Cells were suspended in 20 mM Tris-HCl (pH 7.4) with 0.32 M sucrose, sonicated, and centrifuged at 800g for 30 min at 4 °C. Supernatants were then centrifuged at 12,000g for 30 min at 4 °C. Pellets were resuspended in PBS buffer (pH 7.4) and subjected to three freeze-thaw cycles at −80 °C. The suspension was finally centrifuged at 105,000g for 1 h at 4 °C, supernatants were collected, protein concentration was measured, and samples were aliquoted and stored at −80 °C until use.
# The assay was run in 96-well microplates (Black OptiPlate-96 F; PerkinElmer, Massachusetts, USA), in a total reaction volume of 200 μL. h-NAAA protein preparation (4 μg) was preincubated for 30 min with various concentrations of test compounds or vehicle control (DMSO 5%) in 100 mM citrate/phosphate buffer (pH 4.5) containing 3.0 mM DTT, 0.1% NP40, 0.05% BSA, and 150 mM NaCl. The background (no activity) samples were prepared using assay buffer without h-NAAA and DMSO (5%). N-(4-methyl-2-oxo-chromen-7-yl)-hexadecanamide (PAMCA)[60] was used as a substrate (2 μM) and the reaction was carried out for 50 min at 37 °C. Fluorescence was measured with EnVision 2014 Multilabel Reader (PerkinElmer, Massachusetts, USA) using an excitation wavelength of 355 nm and an emission of 460 nm. IC50 values were calculated by non-linear regression analysis of log[concentration]/response curves generated with mean replicate values using a four-parameter Hill equation curve fitting with GraphPad Prism 5 (GraphPad Software Inc., CA, USA).
# human FAAH = molecular target: T2, human FAAH (Homo sapiens, UniProt O00519); assay: Fluorogenic human-FAAH-1 assay; format: biochemical
# T2 construct: made in house; host or cells: HEK-293 cells stably overexpressing human FAAH-1; membrane-enriched lysate
# T2 sequence (O00519 1-579): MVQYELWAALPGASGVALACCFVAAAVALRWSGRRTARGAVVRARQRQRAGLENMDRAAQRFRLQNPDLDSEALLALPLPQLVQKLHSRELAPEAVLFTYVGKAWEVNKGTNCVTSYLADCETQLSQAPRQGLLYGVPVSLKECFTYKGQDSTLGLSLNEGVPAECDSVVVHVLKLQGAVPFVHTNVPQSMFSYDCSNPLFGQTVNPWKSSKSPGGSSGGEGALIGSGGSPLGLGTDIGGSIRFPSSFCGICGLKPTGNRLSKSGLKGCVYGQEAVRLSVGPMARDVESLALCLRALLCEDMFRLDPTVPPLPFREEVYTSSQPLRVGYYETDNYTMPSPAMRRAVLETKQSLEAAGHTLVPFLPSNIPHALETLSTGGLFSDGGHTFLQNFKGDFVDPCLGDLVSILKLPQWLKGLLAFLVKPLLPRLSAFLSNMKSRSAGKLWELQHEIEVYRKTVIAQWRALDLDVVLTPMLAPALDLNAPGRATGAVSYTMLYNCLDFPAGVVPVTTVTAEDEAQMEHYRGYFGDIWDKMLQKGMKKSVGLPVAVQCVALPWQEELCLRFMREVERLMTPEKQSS
# Description: as §1
# Cell pellets, obtained by centrifugation at 300g for 7 min at 4 °C, were resuspended in 20 mM Tris-HCl pH 7.4, 0.32 M sucrose, disrupted by sonication (10 pulses, 5 times), and centrifuged (1000g, 10 min, 4 °C). […] Membrane pellets were resuspended in PBS to obtain h-FAAH-1 preparation; the protein concentration was measured by the Bradford Protein Assay (BioRad) and samples were aliquoted and stored at −80 °C until use.
# The fluorescence assay to measure FAAH activity was performed in 96-well black plates (Black OptiPlate-96 F; PerkinElmer, Massachusetts, USA): 2.5 μg of human FAAH-1 membrane preparation was preincubated for 50 min at 37 °C, in 190 μL of assay buffer (50 mM Tris-HCl pH 7.4, 0.05% Fatty acid-free BSA) with 5 μL of inhibitor or 5 μL DMSO to measure FAAH total activity. […]
Compound,LipE (h-NAAA),pIC50 (h-NAAA),IC50 (h-NAAA),inhibition at 30 µM (human FAAH)
"CCOCc1cnc(O[C@H]2C[C@H]3CC[C@@H](C2)N3S(=O)(=O)c2c(C)n[nH]c2C)cn1 [Compound 50, (1R,3r,5S)-8-((3,5-Dimethyl-1H-pyrazol-4-yl)sulfonyl)-3-((5-(ethoxymethyl)pyrazin-2-yl)oxy)-8-azabicyclo[3.2.1]octane]",6.83,7.38,42 ± 2 nM,25%
"CCCCc1ccc(O[C@H]2C[C@H]3CC[C@@H](C2)N3S(=O)(=O)c2c(C)n[nH]c2C)cc1 [Compound 39, (1R,3r,5S)-3-(4-Butylphenoxy)-8-((3,5-dimethyl-1H-pyrazol-4-yl)sulfonyl)-8-azabicyclo[3.2.1]octane]",3.84,7.64,23 ± 4 nM,
